Literature values as cited in US5348748A, “Pulsatile once-a-day delivery systems for minocycline” (American Cyanamid Company, priority 1993, dated 1994).

Columns and labels:
[1] = taken with food
[2] = system: wide range of gram-negative and gram-positive bacteria; conditions: PDR 43rd Ed.

## CN(C)c1ccc(O)c2c1C[C@H]1C[C@H]3[C@H](N(C)C)C(=O)C(C(N)=O)=C(O)[C@@]3(O)C(=O)C1=C2O [minocycline, 7-dimethylamino-6-deoxy-6-demethyltetracycline]
other
  absorption in the lower gastrointestinal tract in words: reduced absorption in the lower gastrointestinal tract
[1]
  half life: 14 to 16 h
[2]
  susceptibility of organisms in words: susceptible
